Source: the CheMixHub viscosity set

Assay: xn = mol fraction of the nth substance listed

CCOC(=O)C(C)O (centres undefined) + CN1CCCC1=O
viscosity [mPa·s], 101 kPa
Details | 293.15 K | 313.15 K
x1 = 0.0999 | – | 1.525
x1 = 0.3001 | 2.585 | 1.765

CC(C)CC(C)O (centres undefined) + CO
298.15 K, 101.33 kPa
Details | viscosity [mPa·s]
x2 = 0.1191 | 3.504
x2 = 0.2078 | 3.263
x2 = 0.3157 | 2.847
x2 = 0.4359 | 2.297
x2 = 0.5125 | 1.958
x2 = 0.6519 | 1.459
x2 = 0.7023 | 1.297
x2 = 0.8038 | 1.002
x2 = 0.9042 | 0.7423

CCN(CC)CCO + O=C1CCCCC1
viscosity [mPa·s], 101 kPa
Details | 298.15 K | 308.15 K | 318.15 K
x2 = 0.0501 | 3.267 | 2.46 | 1.885
x2 = 0.1004 | 3.133 | 2.336 | 1.766
x2 = 0.15 | 3.002 | 2.228 | 1.663
x2 = 0.2 | 2.878 | 2.126 | 1.564
x2 = 0.3002 | 2.662 | 1.939 | 1.417
x2 = 0.4 | 2.49 | 1.799 | 1.309
x2 = 0.5 | 2.344 | 1.703 | 1.24
x2 = 0.5999 | 2.234 | 1.647 | 1.224
x2 = 0.6503 | 2.191 | 1.639 | 1.229
x2 = 0.6995 | 2.159 | 1.639 | 1.249
x2 = 0.7997 | 2.127 | 1.663 | 1.306
x2 = 0.8997 | 2.121 | 1.717 | 1.389
x2 = 0.9497 | 2.133 | 1.747 | 1.443

C1CCCCCCC1 + Clc1ccccc1
viscosity [mPa·s], 101 kPa
Details | x1 = 0.1213 | x1 = 0.2071 | x1 = 0.3009 | x1 = 0.3941 | x1 = 0.5112 | x1 = 0.5915 | x1 = 0.6905 | x1 = 0.799 | x1 = 0.9125
308.15 K | 0.7246 | 0.7681 | 0.8486 | 0.9205 | 1.014 | 1.079 | 1.159 | 1.297 | 1.544
313.15 K | 0.6673 | 0.7011 | 0.7511 | 0.8196 | 0.9056 | 0.951 | 1.042 | 1.197 | 1.402

NS(=O)(=O)O + CN1CCCC1=O
298 K, 101.33 kPa
Details | viscosity [mPa·s]
x1 = 0.02005 | 2.01
x1 = 0.03918 | 2.413
x1 = 0.05851 | 2.977
x1 = 0.07708 | 3.724
x1 = 0.09776 | 4.962
